Measured values reported in PubChem BioAssay AID1259407 (Chemical Carcinogenesis Research Information System (CCRIS), 2018).
The source made the active and inactive calls. No rule for the calls is given here.

Test system: CCRIS mutagenicity, Ames/micronucleus/aberration tests
Experiment: CCRIS mutagenicity studies
[1] = Test System: AMES SALMONELLA TYPHIMURIUM, Strain/Indicator: TA98, Metabolic Activation: NONE, Method: PREINCUBATION
[2] = Test System: AMES SALMONELLA TYPHIMURIUM, Strain/Indicator: TA100, Metabolic Activation: NONE, Method: PREINCUBATION
[3] = Test System: AMES SALMONELLA TYPHIMURIUM, Strain/Indicator: TA98, Metabolic Activation: NONE, Method: STANDARD PLATE
[4] = Test System: AMES SALMONELLA TYPHIMURIUM, Strain/Indicator: TA98, Metabolic Activation: RAT, LIVER, S-9, AROCLOR 1254, Method: STANDARD PLATE
[5] = Test System: AMES SALMONELLA TYPHIMURIUM, Strain/Indicator: TA100, Metabolic Activation: NONE, Method: STANDARD PLATE
[6] = Test System: AMES SALMONELLA TYPHIMURIUM, Strain/Indicator: TA100, Metabolic Activation: RAT, LIVER, S-9, AROCLOR 1254, Method: STANDARD PLATE
[7] = Test System: AMES SALMONELLA TYPHIMURIUM, Strain/Indicator: TA102, Metabolic Activation: NONE, Method: STANDARD PLATE
[8] = Test System: AMES SALMONELLA TYPHIMURIUM, Strain/Indicator: TA102, Metabolic Activation: RAT, LIVER, S-9, AROCLOR 1254, Method: STANDARD PLATE
[9] = Test System: AMES SALMONELLA TYPHIMURIUM, Strain/Indicator: TA1535, Metabolic Activation: NONE, Method: STANDARD PLATE
[10] = Test System: AMES SALMONELLA TYPHIMURIUM, Strain/Indicator: TA1537, Metabolic Activation: NONE, Method: STANDARD PLATE

Clc1nncc2ccncc12
mutagenic call [1]: inactive; negative
mutagenic call (Test System: AMES SALMONELLA TYPHIMURIUM, Strain/Indicator: TA98, Metabolic Activation: RAT, LIVER, S-9, PCB, Method: PREINCUBATION): inactive; negative
mutagenic call [2]: inactive; negative
mutagenic call (Test System: AMES SALMONELLA TYPHIMURIUM, Strain/Indicator: TA100, Metabolic Activation: RAT, LIVER, S-9, PCB, Method: PREINCUBATION): inactive; negative

Cc1nc2c(c3[nH]c4ccccc4c13)C(=O)C=C(N1CC1)C2=O
mutagenic call (Test System: AMES SALMONELLA TYPHIMURIUM, Strain/Indicator: TA97, Metabolic Activation: NONE, Method: STANDARD PLATE): active; positive
mutagenic call (Test System: AMES SALMONELLA TYPHIMURIUM, Strain/Indicator: TA97, Metabolic Activation: RAT, LIVER, S-9, AROCLOR 1254, Method: STANDARD PLATE): active; positive
mutagenic call [3]: active; positive
mutagenic call [4]: active; positive
mutagenic call [5]: active; positive
mutagenic call [6]: active; positive
mutagenic call [7]: inactive; negative
mutagenic call [8]: active; positive

O=[N+]([O-])c1cc2ccc3cccc4ccc(c1O)c2c34
mutagenic call (Test System: AMES SALMONELLA TYPHIMURIUM, Strain/Indicator: TA98(NR), Metabolic Activation: NONE, Method: STANDARD PLATE): active; positive
mutagenic call [3]: active; positive
mutagenic call [4]: active; positive
mutagenic call [5]: active; positive
mutagenic call [6]: active; positive

CCCS(=O)(=O)n1ncc(Cl)c(Cl)c1=O
mutagenic call [3]: inactive; negative
mutagenic call [4]: inactive; negative
mutagenic call [5]: active; positive
mutagenic call [6]: active; positive
mutagenic call [9]: inactive; negative
mutagenic call (Test System: AMES SALMONELLA TYPHIMURIUM, Strain/Indicator: TA1535, Metabolic Activation: RAT, LIVER, S-9, AROCLOR 1254, Method: STANDARD PLATE): active; positive
mutagenic call [10]: inactive; negative
mutagenic call (Test System: AMES SALMONELLA TYPHIMURIUM, Strain/Indicator: TA1537, Metabolic Activation: RAT, LIVER, S-9, AROCLOR 1254, Method: STANDARD PLATE): inactive; negative

O=[N+]([O-])c1ccc2cc(O)c3cccc4ccc1c2c43
mutagenic call [3]: active; positive
mutagenic call [4]: active; positive

C/C=C(/C(=C/C)c1ccc(O)cc1)c1ccc(O)cc1
mutagenic call (End Point: IN VITRO CHROMOSOMAL ABERRATIONS, Test System: CHINESE HAMSTER CELL DON (22;XY), Metabolic Activation: NONE): active; positive (ploidy changes)
mutagenic call [3]: inactive; negative
mutagenic call (Test System: AMES SALMONELLA TYPHIMURIUM, Strain/Indicator: TA98, Metabolic Activation: RAT, LIVER, S-9, Method: STANDARD PLATE): inactive; negative
mutagenic call [5]: inactive; negative; toxicity at 100 ug/plate
mutagenic call (Test System: AMES SALMONELLA TYPHIMURIUM, Strain/Indicator: TA100, Metabolic Activation: RAT, LIVER, S-9, Method: STANDARD PLATE): inactive; negative; toxicity at 100 ug/plate
mutagenic call [9]: inactive; negative; toxicity at 50 ug/plate
mutagenic call (Test System: AMES SALMONELLA TYPHIMURIUM, Strain/Indicator: TA1535, Metabolic Activation: RAT, LIVER, S-9, Method: STANDARD PLATE): inactive; negative; toxicity at 100 ug/plate
mutagenic call [10]: inactive; negative
mutagenic call (Test System: AMES SALMONELLA TYPHIMURIUM, Strain/Indicator: TA1537, Metabolic Activation: RAT, LIVER, S-9, Method: STANDARD PLATE): inactive; negative
mutagenic call (Test System: AMES SALMONELLA TYPHIMURIUM, Strain/Indicator: TA1538, Metabolic Activation: NONE, Method: STANDARD PLATE): inactive; negative
mutagenic call (Test System: AMES SALMONELLA TYPHIMURIUM, Strain/Indicator: TA1538, Metabolic Activation: RAT, LIVER, S-9, Method: STANDARD PLATE): inactive; negative; toxicity at 100 ug/plate

CSC[C@H](NC(=O)C(C)(C)SC)C(=O)O
mutagenic call [1]: inactive; negative
mutagenic call [2]: inactive; negative
mutagenic call (Test System: AMES SALMONELLA TYPHIMURIUM, Strain/Indicator: TA1535, Metabolic Activation: NONE, Method: PREINCUBATION): inactive; negative
mutagenic call (Test System: AMES SALMONELLA TYPHIMURIUM, Strain/Indicator: TA1537, Metabolic Activation: NONE, Method: PREINCUBATION): inactive; negative
mutagenic call (Test System: AMES SALMONELLA TYPHIMURIUM, Strain/Indicator: TA1538, Metabolic Activation: NONE, Method: PREINCUBATION): inactive; negative
mutagenic call (Test System: E. COLI, Strain/Indicator: WP2, Metabolic Activation: NONE, Method: PREINCUBATION): inactive; negative
mutagenic call (Test System: E. COLI, Strain/Indicator: WP2 UVRA, Metabolic Activation: NONE, Method: PREINCUBATION): inactive; negative

CC(=O)N(O)c1ccc(/C=C\c2ccccc2)cc1
mutagenic call (Test System: UDS HUMAN FIBROBLASTS, Strain/Indicator: THY INCORP (NON-S-PHASE), Metabolic Activation: NONE, Method: AUTORADIOGRAPHY): active; positive

CC1OC(OC2CC(O)(CO)Cc3c(O)c4c(c(O)c32)C(=O)c2ccccc2C4=O)C(I)C(O)C1O (configuration not stated)
mutagenic call (Test System: AMES SALMONELLA TYPHIMURIUM, Strain/Indicator: TA97A, Metabolic Activation: NONE, Method: STANDARD PLATE): inactive; negative
mutagenic call (Test System: AMES SALMONELLA TYPHIMURIUM, Strain/Indicator: TA97A, Metabolic Activation: RAT, LIVER, S-9, AROCLOR 1254, Method: STANDARD PLATE): inactive; negative
mutagenic call [3]: inactive; negative
mutagenic call [4]: inactive; negative
mutagenic call [5]: inactive; negative
mutagenic call [6]: inactive; negative
mutagenic call [7]: active; positive
mutagenic call [8]: inactive; negative

Cn1c(N)nc2cc(Cl)ccc21
mutagenic call (Test System: AMES SALMONELLA TYPHIMURIUM, Strain/Indicator: TA98, Metabolic Activation: RAT, LIVER, S-9, AROCLOR 1254, Method: PREINCUBATION): active; positive
mutagenic call (Test System: AMES SALMONELLA TYPHIMURIUM, Strain/Indicator: TA100, Metabolic Activation: RAT, LIVER, S-9, AROCLOR 1254, Method: PREINCUBATION): active; positive

CC(=O)C(=O)c1ccccc1
mutagenic call [5]: inactive; negative
